{"source": "ChEMBL document CHEMBL1828546", "about": "“Aminothiophenedicarboxamides and dicyanothiopheneacetamides as effective synthetic molluscicides against Indoplanorbis exustus snail” (Eur J Med Chem, 2011)", "assay_type_in_all_cases": "functional", "key": {"[1]": {"test_system": "Indoplanorbis exustus", "assay": "Molluscicidal activity against Indoplanorbis exustus assessed as mortality at 0.02 to 40 ppm after 24 hrs"}, "[2]": {"test_system": "Indoplanorbis exustus", "assay": "Molluscicidal activity against Indoplanorbis exustus after 24 hrs"}, "[3]": {"test_system": "Indoplanorbis exustus", "assay": "Molluscicidal activity against Indoplanorbis exustus assessed as mortality at 20 ppm after 24 hrs"}, "[4]": {"test_system": "Indoplanorbis exustus", "assay": "Molluscicidal activity against Indoplanorbis exustus assessed as mortality at 30 ppm after 24 hrs"}, "[5]": {"test_system": "Indoplanorbis exustus", "assay": "Molluscicidal activity against Indoplanorbis exustus assessed as mortality at 40 ppm after 24 hrs"}, "[6]": {"test_system": "Indoplanorbis exustus", "assay": "Molluscicidal activity against Indoplanorbis exustus assessed as mortality at 10 ppm after 24 hrs"}, "[7]": {"test_system": "Indoplanorbis exustus", "assay": "Molluscicidal activity against Indoplanorbis exustus assessed as mortality at 0.06 ppm after 24 hrs"}, "[8]": {"test_system": "Indoplanorbis exustus", "assay": "Molluscicidal activity against Indoplanorbis exustus assessed as mortality at 0.08 ppm after 24 hrs"}, "[9]": {"test_system": "Indoplanorbis exustus", "assay": "Molluscicidal activity against Indoplanorbis exustus assessed as mortality at 0.02 ppm after 24 hrs"}, "[10]": {"test_system": "Indoplanorbis exustus", "assay": "Molluscicidal activity against Indoplanorbis exustus assessed as mortality at 0.04 ppm after 24 hrs"}}, "note": "Active and inactive are the calls of the source. The rule behind the calls is not given here.", "data": [{"molecule": "N#Cc1sc(N)c(C#N)c1-c1cc(C(F)(F)F)cc(C(F)(F)F)c1", "values": [{"measurement": "Activity", "setting": "[1]", "value": "inactive"}]}, {"molecule": "NC(=O)c1sc(N)c(C(N)=O)c1-c1cc(C(F)(F)F)cc(C(F)(F)F)c1", "values": [{"measurement": "LC50", "setting": "[2]", "value": 0.751, "unit": "ppm"}, {"measurement": "Activity", "setting": "[3]", "value": 30, "unit": "%"}, {"measurement": "Activity", "setting": "[4]", "value": 60, "unit": "%"}, {"measurement": "Activity", "setting": "[5]", "value": 60, "unit": "%"}, {"measurement": "Activity", "setting": "[6]", "value": 20, "unit": "%"}]}, {"molecule": "NC(=O)c1sc(N)c(C(N)=O)c1-c1ccc(Cl)cc1", "values": [{"measurement": "LC50", "setting": "[2]", "value": 0.604, "unit": "ppm"}, {"measurement": "Activity", "setting": "[3]", "value": 20, "unit": "%"}, {"measurement": "Activity", "setting": "[4]", "value": 30, "unit": "%"}, {"measurement": "Activity", "setting": "[5]", "value": 50, "unit": "%"}, {"measurement": "Activity", "setting": "[6]", "value": 0, "unit": "%"}]}, {"molecule": "N#Cc1sc(N)c(C#N)c1-c1ccc(Cl)cc1", "values": [{"measurement": "Activity", "setting": "[1]", "value": "inactive"}]}, {"molecule": "CC(=O)Nc1sc(C#N)c(-c2cc(C(F)(F)F)cc(C(F)(F)F)c2)c1C#N", "values": [{"measurement": "LC50", "setting": "[2]", "value": 0.74, "unit": "ppm"}, {"measurement": "Activity", "setting": "[7]", "value": 50, "unit": "%"}, {"measurement": "Activity", "setting": "[8]", "value": 70, "unit": "%"}, {"measurement": "Activity", "setting": "[9]", "value": 20, "unit": "%"}, {"measurement": "Activity", "setting": "[10]", "value": 30, "unit": "%"}]}, {"molecule": "NC(=O)c1sc(N)c(C(N)=O)c1-c1ccc(F)cc1F", "values": [{"measurement": "LC50", "setting": "[2]", "value": 0.607, "unit": "ppm"}, {"measurement": "Activity", "setting": "[3]", "value": 40, "unit": "%"}, {"measurement": "Activity", "setting": "[4]", "value": 60, "unit": "%"}, {"measurement": "Activity", "setting": "[5]", "value": 70, "unit": "%"}, {"measurement": "Activity", "setting": "[6]", "value": 20, "unit": "%"}]}, {"molecule": "Cc1nc2sc(C(N)=O)c(-c3ccc(Cl)cc3)c2c(=O)[nH]1", "values": [{"measurement": "Activity", "setting": "[1]", "value": "inactive"}]}, {"molecule": "CC(=O)Nc1sc(C#N)c(-c2ccc(F)cc2F)c1C#N", "values": [{"measurement": "LC50", "setting": "[2]", "value": 0.763, "unit": "ppm"}, {"measurement": "Activity", "setting": "[7]", "value": 50, "unit": "%"}, {"measurement": "Activity", "setting": "[8]", "value": 60, "unit": "%"}, {"measurement": "Activity", "setting": "[9]", "value": 20, "unit": "%"}, {"measurement": "Activity", "setting": "[10]", "value": 40, "unit": "%"}]}, {"molecule": "NC(=O)c1sc2nc(CCl)[nH]c(=O)c2c1-c1ccc(Cl)cc1", "values": [{"measurement": "Activity", "setting": "[1]", "value": "inactive"}]}, {"molecule": "N#Cc1sc(N)c(C#N)c1-c1ccc(F)cc1F", "values": [{"measurement": "Activity", "setting": "[1]", "value": "inactive"}]}, {"molecule": "CC(=O)Nc1sc(C#N)c(-c2ccc(Cl)cc2)c1C#N", "values": [{"measurement": "LC50", "setting": "[2]", "value": 0.651, "unit": "ppm"}, {"measurement": "Activity", "setting": "[7]", "value": 60, "unit": "%"}, {"measurement": "Activity", "setting": "[8]", "value": 80, "unit": "%"}, {"measurement": "Activity", "setting": "[9]", "value": 20, "unit": "%"}, {"measurement": "Activity", "setting": "[10]", "value": 40, "unit": "%"}]}]}
